# Experimental data: patent publication US11401286B2 (Tetra Discovery Partners, LLC, priority 2012, dated 2022)
# Counter-ions that a name gives are not always drawn.
# Target: PDE4D7 (Homo sapiens (Human), UniProt Q08499)
# Details: not given
# PDE4D7, sequence (Q08499 other isoform, or with tags, fused parts or gaps): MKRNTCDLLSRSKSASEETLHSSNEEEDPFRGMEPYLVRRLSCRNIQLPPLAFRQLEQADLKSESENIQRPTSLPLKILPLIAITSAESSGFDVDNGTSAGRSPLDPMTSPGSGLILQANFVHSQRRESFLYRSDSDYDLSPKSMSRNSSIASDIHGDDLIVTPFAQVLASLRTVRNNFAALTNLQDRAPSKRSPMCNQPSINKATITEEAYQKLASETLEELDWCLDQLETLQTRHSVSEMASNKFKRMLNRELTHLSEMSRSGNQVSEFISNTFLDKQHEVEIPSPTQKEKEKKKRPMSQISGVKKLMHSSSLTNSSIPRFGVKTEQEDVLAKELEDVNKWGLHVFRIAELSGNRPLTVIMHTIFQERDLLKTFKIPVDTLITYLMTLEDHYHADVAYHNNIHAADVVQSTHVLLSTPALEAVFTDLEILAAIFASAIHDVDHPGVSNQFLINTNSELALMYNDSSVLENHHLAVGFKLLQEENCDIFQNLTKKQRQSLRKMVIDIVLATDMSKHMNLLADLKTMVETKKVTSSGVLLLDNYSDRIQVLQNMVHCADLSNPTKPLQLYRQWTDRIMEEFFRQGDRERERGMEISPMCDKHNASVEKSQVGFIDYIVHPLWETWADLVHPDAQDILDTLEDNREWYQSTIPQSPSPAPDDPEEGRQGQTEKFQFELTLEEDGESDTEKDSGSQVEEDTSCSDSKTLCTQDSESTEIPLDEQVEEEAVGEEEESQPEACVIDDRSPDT
row,IC50,SMILES
1,> 1000 nM,"OCCc1ccc(Nc2ccnc(-c3cccc(Cl)c3)c2)cc1 [Example 84, 2-(4-((2-(3-Chlorophenyl)pyridin-4-yl)amino)phenyl)ethanol hydrochloride]"

# Same assay, conditions: read-out: PDE4D7 IC50
row,SMILES,IC50
1,"CCc1cc(Cc2ccc(CCO)cc2)nc(-c2cccc(Cl)c2)n1 [Example 67, 2-(4-((2-(3-Chlorophenyl)-6-ethylpyrimidin-4-yl)methyl)phenyl)ethanol]",< 1000 nM
2,"CCc1nc(Nc2ccc(CO)cc2)nc(-c2cccc(Cl)c2)n1 [Example 80, (4-((4-(3-Chlorophenyl)-6-ethyl-1,3,5-triazin-2-yl)amino)phenyl)methanol]",< 1000 nM
3,"CCc1nc(Nc2ccc(CCCO)cc2)nc(-c2cccc(Cl)c2)n1 [Example 81, 3-(4-((4-(3-Chlorophenyl)-6-ethyl-1,3,5-triazin-2-yl)amino)phenyl)propan-1-ol]",< 1000 nM
4,"COC(=O)Cc1ccc(Nc2cc(-c3cccc(Cl)c3)nc3c2CCC3)cn1 [Example 89, Methyl 2-(5-((2-(3-chlorophenyl)-6,7-dihydro-5H-cyclopenta[b]pyridin-4-yl)amino)pyridin-2-yl)acetate hydrochloride]",> 1000 nM
5,"OCCc1ccc(Nc2cc(-c3cccc(Cl)c3)nc3c2CCC3)nc1 [Example 92, 2-(6-((2-(3-Chlorophenyl)-6,7-dihydro-5H-cyclopenta[b]pyridin-4-yl)amino)pyridin-3-yl)ethanol hydrochloride]",> 1000 nM
6,"CN(C)CCc1ccc(Nc2cc(-c3cccc(Cl)c3)nc3c2CCC3)cc1 [Example 105, 2-(3-Chlorophenyl)-N-(4-(2-(dimethylamino)ethyl)phenyl)-6,7-dihydro-5H-cyclopenta[b]pyridin-4-amine hydrochloride]",> 1000 nM

# Same assay, conditions: read-out: PDE4D7 IC50; PDE4D7 without asterisk
row,IC50,SMILES
1,< 1000 nM,"O=C(O)c1ccc(Nc2nc(-c3cccc(Cl)c3)nc(C3CC3)n2)cc1 [Example 41, 4-((4-(3-chlorophenyl)-6-cyclopropyl-1,3,5-triazin-2-yl)amino)benzoic acid]"
2,> 1000 nM,"O=C(O)Cc1ccc(Oc2nc(-c3cccc(Cl)c3)nc(C3CC3)n2)cc1 [Example 43, 2-(4-((4-(3-chlorophenyl)-6-cyclopropyl-1,3,5-triazin-2-yl)oxy)phenyl)acetic acid]"
3,< 1000 nM,"CCc1nc(Nc2ccc(C#N)cc2)nc(-c2cccc(Cl)c2)n1 [Example 51, 4-(4-(3-chlorophenyl)-6-ethyl-1,3,5-triazin-2-ylamino)benzonitrile]"
4,< 1000 nM,"CCc1nc(Nc2ccc(CC#N)cc2)nc(-c2cccc(Cl)c2)n1 [Example 52, 2-(4-(4-(3-chlorophenyl)-6-ethyl-1,3,5-triazin-2-ylamino)phenyl)acetonitrile]"
5,< 1000 nM,"CCc1nc(Nc2ccc(CC(N)=O)cc2)nc(-c2cccc(Cl)c2)n1 [Example 57, 2-(4-(4-(3-chlorophenyl)-6-ethyl-1,3,5-triazin-2-ylamino)phenyl)acetamide]"
6,< 1000 nM,"CCc1nc(Nc2ccc(CCO)cc2)nc(-c2cccc(Cl)c2)n1 [Example 58, 2-(4-(4-(3-chlorophenyl)-6-ethyl-1,3,5-triazin-2-ylamino)phenyl)ethanol]"
7,> 1000 nM,"CCc1nc(Oc2ccc(CC(N)=O)cc2)nc(-c2cccc(Cl)c2)n1 [Example 61, 2-(4-((4-(3-chlorophenyl)-6-ethyl-1,3,5-triazin-2-yl)oxy)phenyl)acetamide]"
8,< 1000 nM,"CCc1nc(Nc2ccc(C(N)=O)cc2)nc(-c2cccc(Cl)c2)n1 [Example 62, 4-(4-(3-chlorophenyl)-6-ethyl-1,3,5-triazin-2-ylamino)benzamide]"
9,< 1000 nM,"CCc1cc(Cc2ccc(CC(N)=O)cc2)nc(-c2cccc(Cl)c2)n1 [Example 65, 2-(4-((2-(3-Chlorophenyl)-6-ethylpyrimidin-4-yl)methyl)phenyl)acetamide]"
10,> 1000 nM,"NC(=O)Cc1ccc(Cc2nc(-c3cccc(Cl)c3)nc3c2CCC3)cc1 [Example 68, 2-(4-((2-(3-chlorophenyl)-6,7-dihydro-5H-cyclopenta[d]pyrimidin-4-yl)methyl)phenyl)acetamide]"
11,> 1000 nM,"Cc1ccc(Cc2nc(-c3cccc(Cl)c3)nc3c2CCC3)cc1 [Example 69, 2-(3-Chlorophenyl)-4-(4-methylbenzyl)-6,7-dihydro-5H-cyclopenta[d]pyrimidine]"
12,> 1000 nM,"Cc1ccc(C(=O)c2nc(-c3cccc(Cl)c3)nc3c2CCC3)cc1 [Example 70, (2-(3-Chlorophenyl)-6,7-dihydro-5H-cyclopenta[d]pyrimidin-4-yl)(p-tolyl)methanone]"
13,< 1000 nM,"CCc1c(C)nc(-c2ccc(Cl)s2)nc1Nc1ccc2c(c1)COB2O [Example 71, 2-(5-chloro-2-thienyl)-5-ethyl-N-(1-hydroxy-3H-2,1-benzoxaborol-5-yl)-6-methyl-pyrimidin-4-amine]"
14,< 1000 nM,"CCc1nc(Nc2ccc(CCOC)cc2)nc(-c2cccc(Cl)c2)n1 [Example 82, 4-(3-Chlorophenyl)-6-ethyl-N-(4-(2-methoxyethyl)phenyl)-1,3,5-triazin-2-amine]"
15,> 1000 nM,"NC(=O)Cc1ccc(Nc2ccnc(-c3cccc(Cl)c3)c2)cc1 [Example 83, 2-(4-((2-(3-Chlorophenyl)pyridin-4-yl)amino)phenyl)acetamide hydrochloride]"
16,< 1000 nM,"OCCCc1ccc(Nc2cc(-c3cccc(Cl)c3)nc3c2CCC3)cc1 [Example 85, 3-(4-((2-(3-Chlorophenyl)-6,7-dihydro-5H-cyclopenta[b]pyridin-4-yl)amino)phenyl)propan-1-ol hydrochloride]"
17,> 1000 nM,"COCCc1ccc(Nc2cc(-c3cccc(Cl)c3)nc3c2CCC3)cc1 [Example 86, 2-(3-Chlorophenyl)-N-(4-(2-methoxyethyl)phenyl)-6,7-dihydro-5H-cyclopenta[b]pyridin-4-amine hydrochloride]"
18,> 1000 nM,"COC(=O)c1ccc(Nc2cc(-c3cccc(Cl)c3)nc3c2CCC3)cc1 [Example 87, Methyl 4-((2-(3-chlorophenyl)-6,7-dihydro-5H-cyclopenta[b]pyridin-4-yl)amino)benzoatehydrochloride]"
19,> 1000 nM,"OCc1ccc(Nc2cc(-c3cccc(Cl)c3)nc3c2CCC3)cc1 [Example 88, (4-((2-(3-Chlorophenyl)-6,7-dihydro-5H-cyclopenta[b]pyridin-4-yl)amino)phenyl)methanol]"
20,> 1000 nM,"OC[C@H]1CC[C@H](Nc2cc(-c3cccc(Cl)c3)nc3c2CCC3)CC1 [Example 93, Trans-4-((2-(3-Chlorophenyl)-6,7-dihydro-5H-cyclopenta[b]pyridin-4-yl)amino)cyclohexyl-methanol hydrochloride]"
21,> 1000 nM,"NC(=O)Cc1ccc(Nc2cc(-c3cccc(Cl)c3)nc3c2CCC3)nc1 [Example 94, 2-(6-((2-(3-Chlorophenyl)-6,7-dihydro-5H-cyclopenta[b]pyridin-4-yl)amino)pyridin-3-yl)acetamide hydrochloride]"
22,> 1000 nM,"NC(=O)C[C@H]1CC[C@H](Nc2cc(-c3cccc(Cl)c3)nc3c2CCC3)CC1 [Example 96, Trans-2-(4-((2-(3-Chlorophenyl)-6,7-dihydro-5H-cyclopenta[b]pyridin-4-yl)amino)cyclohexyl)acetamide hydrochloride]"
23,> 1000 nM,"OCC[C@H]1CC[C@H](Nc2cc(-c3cccc(Cl)c3)nc3c2CCC3)CC1 [Example 97, Trans-2-(4-((2-(3-chlorophenyl)-6,7-dihydro-5H-cyclopenta[b]pyridin-4-yl)amino)cyclohexyl)ethanol hydrochloride]"
24,> 1000 nM,"CC(C)(O)Cc1ccc(Nc2cc(-c3cccc(Cl)c3)nc3c2CCC3)cc1 [Example 98, 1-(4-((2-(3-Chlorophenyl)-6,7-dihydro-5H-cyclopenta[b]pyridin-4-yl)amino)phenyl)-2-methylpropan-2-ol]"
25,> 1000 nM,"COC(=O)Cc1cccc(Nc2cc(-c3cccc(Cl)c3)nc3c2CCC3)c1 [Example 100, Methyl 2-(3-((2-(3-chlorophenyl)-6,7-dihydro-5H-cyclopenta[b]pyridin-4-yl)amino)phenyl)acetate hydrochloride]"
26,> 1000 nM,"NC(=O)Cc1cccc(Nc2cc(-c3cccc(Cl)c3)nc3c2CCC3)c1 [Example 101, 2-(3-((2-(3-Chlorophenyl)-6,7-dihydro-5H-cyclopenta[b]pyridin-4-yl)amino)phenyl)acetamide hydrochloride]"
27,> 1000 nM,"OCCc1cccc(Nc2cc(-c3cccc(Cl)c3)nc3c2CCC3)c1 [Example 102, 2-(3-((2-(3-Chlorophenyl)-6,7-dihydro-5H-cyclopenta[b]pyridin-4-yl)amino)phenyl)ethanol hydrochloride]"
28,> 1000 nM,"CC(O)Cc1ccc(Nc2cc(-c3cccc(Cl)c3)nc3c2CCC3)cc1 (centres unmarked) [Example 104, 1-(4-((2-(3-Chlorophenyl)-6,7-dihydro-5H-cyclopenta[b]pyridin-4-yl)amino)phenyl)propan-2-ol]"
29,> 1000 nM,"C[C@@H](O)Cc1ccc(Nc2cc(-c3cccc(Cl)c3)nc3c2CCC3)cc1 [Example 106, (R)-1-(4-((2-(3-Chlorophenyl)-6,7-dihydro-5H-cyclopenta[b]pyridin-4-yl)amino)phenyl)propan-2-ol]"
30,> 1000 nM,"C[C@H](O)Cc1ccc(Nc2cc(-c3cccc(Cl)c3)nc3c2CCC3)cc1 [Example 107, (S)-1-(4-((2-(3-Chlorophenyl)-6,7-dihydro-5H-cyclopenta[b]pyridin-4-yl)amino)phenyl)propan-2-ol]"

row,SMILES,IC50
1,"CCc1nc(Nc2ccc(CC(=O)O)cc2)nc(-c2cccc(Cl)c2)n1 [Example 39, 2-(4-((4-(3-chlorophenyl)-6-ethyl-1,3,5-triazin-2-yl)amino)phenyl)acetic acid]",> 1000 nM
2,"CCc1nc(Nc2ccc(C(=O)O)cc2)nc(-c2cccc(Cl)c2)n1 [Example 40, 4-((4-(3-chlorophenyl)-6-ethyl-1,3,5-triazin-2-yl)amino)benzoic acid]",< 1000 nM
3,"CCc1cc(Cc2ccc(CC(=O)O)cc2)nc(-c2cccc(Cl)c2)n1 [Example 66, 2-(4-((2-(3-chlorophenyl)-6-ethylpyrimidin-4-yl)methyl)phenyl)acetic acid]",> 1000 nM
4,"NC(=O)Cc1ccc(Nc2cc(-c3cccc(Cl)c3)[n+]([O-])c3c2CCC3)cc1 [Example 103, 4-((4-(2-Amino-2-oxoethyl)phenyl)amino)-2-(3-chlorophenyl)-6,7-dihydro-5H-cyclopenta[b]pyridine 1-oxide]",> 1000 nM
